Measurements reported in article PMC3900303 (Toxicology and applied pharmacology, 2013).
Like-named read-outs stand apart in the source and are kept apart here.

Assays:
[1] = tested on: Human iPSC-derived cardiomyocytes; test: High-throughput cardiomyocyte beating assay; conditions: for effect on beating parameters at 30 minutes: 30 min exposure; for impact on the shape of the peaks: compounds known to prolong the QT interval; for chronotrope effect / effect on the beating rate / beat rate / effect on spacing between peaks and regularity: general clustering analysis of concentration-response; for effect on the beating rate / beat rate: 3 nM to 30 μM; for effect on beating: at 3 μM; for hormesis-like concentration effect on beating rate: low vs high concentrations
[2] = tested on: Human iPSC-derived cardiomyocytes
[3] = tested on: Human iPSC-derived cardiomyocytes; test: Cell viability imaging; format: cell-based; conditions: evaluated 24 hrs after treatment

## O=c1[nH]cc(F)c(=O)[nH]1 [5-fluoracil]
[1]
  effect on beating parameters at 30 minutes: did not have an effect

## CCCCc1oc2ccccc2c1C(=O)c1cc(I)c(OCCN(CC)CC)c(I)c1 [amiodarone]
[1]
  impact on the shape of the peaks: profound impact
  chronotrope effect: negative chronotrope effect

## COc1ccc(CCN2CCC(Nc3nc4ccccc4n3Cc3ccc(F)cc3)CC2)cc1 [astemizol]
[1]
  effect on the beating rate / beat rate: strongly inhibited

## CC(C)COCC(CN(Cc1ccccc1)c1ccccc1)N1CCCC1 (stereo not drawn) [bepridil]
[1]
  effect on the beating rate / beat rate: strongly inhibited

## CCCCN1CCCCC1C(=O)Nc1c(C)cccc1C (stereo not drawn) [bupivacaine]
[1]; multi-parametric peak pattern
  beating profile: appearance of wide peaks

## N.N.[Cl][Pt][Cl] [cisplatin, cis-diamineplatinum(II)dichloride]
[2]
  effect on beating parameters at 30 minutes: did not have an effect

## COc1cccc2c1C(=O)c1c(O)c3c(c(O)c1C2=O)C[C@@](O)(C(C)=O)C[C@@H]3O[C@H]1C[C@H](N)[C@H](O)[C@H](C)O1 [daunorubicin]
[1]
  effect on beating parameters at 30 minutes: did not have an effect

## CNCCCN1c2ccccc2CCc2ccccc21 [desipramine]
[1]
  impact on the shape of the peaks: profound impact

## O=C(O)Cc1ccccc1Nc1c(Cl)cccc1Cl [diclofenac]
[1]
  effect on beating parameters at 30 minutes: did not have an effect

## C[C@H]1O[C@@H](O[C@H]2[C@@H](O)C[C@H](O[C@H]3[C@@H](O)C[C@H](O[C@H]4CC[C@@]5(C)[C@H](CC[C@@H]6[C@@H]5CC[C@]5(C)[C@@H](C7=CC(=O)OC7)CC[C@]65O)C4)O[C@@H]3C)O[C@@H]2C)C[C@H](O)[C@@H]1O [digitoxin]
[1]
  effect on beating: blocked beating completely

## C[C@H]1O[C@@H](O[C@H]2[C@@H](O)C[C@H](O[C@H]3[C@@H](O)C[C@H](O[C@H]4CC[C@@]5(C)[C@H](CC[C@@H]6[C@@H]5C[C@@H](O)[C@]5(C)[C@@H](C7=CC(=O)OC7)CC[C@]65O)C4)O[C@@H]3C)O[C@@H]2C)C[C@H](O)[C@@H]1O [digoxin]
[1]
  effect on beating: blocked beating completely
  hormesis-like concentration effect on beating rate: increased at low concentrations, but decreased or completely stopped at high doses

## COc1ccc([C@@H]2Sc3ccccc3N(CCN(C)C)C(=O)[C@@H]2OC(C)=O)cc1 [diltiazem]
[1]
  effect on the beating rate / beat rate: strongly inhibited

## CC(C)N(CCC(C(N)=O)(c1ccccc1)c1ccccn1)C(C)C (stereo not drawn) [disopyramide]
[3]
  effect on cell viability: No effect
[1]; 30 min exposure time-point
  effect on the beat rate: no effect
[1]; 30 min exposure time-point (Figure 2)
  effect on the peak shape parameters: clear concentration-dependent effect
[1]
  impact on the shape of the peaks: profound impact
  effect on spacing between peaks and regularity: affected
  effect on the beating rate / beat rate: little effect

## COc1cccc2c1C(=O)c1c(O)c3c(c(O)c1C2=O)C[C@@](O)(C(=O)CO)C[C@@H]3O[C@H]1C[C@H](N)[C@H](O)[C@H](C)O1 [doxorubicin]
[1]
  effect on beating parameters at 30 minutes: did not have an effect

## CC(=O)O.O=C(NCC1CCCCN1)c1cc(OCC(F)(F)F)ccc1OCC(F)(F)F (stereo not drawn) [flecainid acetate]
[1]
  effect on spacing between peaks and regularity: affected
  effect on the beating rate / beat rate: little effect

## CC(C)Cc1ccc(C(C)C(=O)O)cc1 (stereo not drawn) [ibuprofen]
[1]
  effect on beating parameters at 30 minutes: did not have an effect

## CN(C)CCCN1c2ccccc2CCc2ccccc21 [imipramine]
[1]
  impact on the shape of the peaks: profound impact

## CC(C)NCC(O)c1ccc(O)c(O)c1 (stereo not drawn) [isoproterenol]
[1]
  chronotrope effect: positive chronotrope effect

## CCN(CC)CC(=O)Nc1c(C)cccc1C [lidocaine]
[1]
  effect on spacing between peaks and regularity: affected
  effect on the beating rate / beat rate: little effect

## Cc1cnc(NC(=O)C2=C(O)c3ccccc3S(=O)(=O)N2C)s1 [meloxicam]
[1]
  effect on beating parameters at 30 minutes: did not have an effect

## COC(=O)C1=C(C)NC(C)=C(C(=O)OCCN(C)Cc2ccccc2)C1c1cccc([N+](=O)[O-])c1 (stereo not drawn) [nicardipine]
[1]
  effect on the beating rate / beat rate: strongly inhibited

## CC(C)NCC(O)COc1cccc2[nH]ccc12 (stereo not drawn) [pindolol]
[1]
  chronotrope effect: negative chronotrope effect

## CCc1ccc(CCOc2ccc(CC3SC(=O)NC3=O)cc2)nc1 (stereo not drawn) [pioglitazone]
[1]
  effect on beating parameters at 30 minutes: did not have an effect

## CCN(CC)CCNC(=O)c1ccc(N)cc1 [procainamide]
[1]
  impact on the shape of the peaks: profound impact

## C=C[C@H]1C[N@@]2CC[C@H]1C[C@@H]2[C@@H](O)c1ccnc2ccc(OC)cc12 [quinidine]
[1]
  impact on the shape of the peaks: profound impact

## CS(=O)(=O)c1ccc(C2=C(c3ccccc3)C(=O)OC2)cc1 [rofecoxib]
[1]
  effect on beating parameters at 30 minutes: did not have an effect

## CN(CCOc1ccc(CC2SC(=O)NC2=O)cc1)c1ccccn1 (stereo not drawn) [rosiglitazone]
[1]
  effect on beating parameters at 30 minutes: did not have an effect

## OCc1cc(C(O)CNCCCCCCOCCCCc2ccccc2)ccc1O (stereo not drawn) [salmeterol]
[1]
  hormesis-like concentration effect on beating rate: increased at low concentrations, but decreased or completely stopped at high doses

## CC(C)NCC(O)c1ccc(NS(C)(=O)=O)cc1 (stereo not drawn) [sotalol]
[1]
  impact on the shape of the peaks: profound impact

## CC(C)(C)c1ccc(C(O)CCCN2CCC(C(O)(c3ccccc3)c3ccccc3)CC2)cc1 (stereo not drawn) [terfenadine]
[1]
  effect on the beating rate / beat rate: strongly inhibited
